These results are taken from patent EP4570803A1, “SALT FORM AND CRYSTAL FORM OF 5,6-DIHYDROTHIENO[3,4-H]QUINAZOLINE COMPOUND AND PREPARATION METHOD THEREFOR” (NovaOnco JS Therapeutics Co., Ltd., priority 2022, dated 2024).

Molecules are shown by their SMILES.

The nature of series [1]: Pharmacokinetic study of oral administration in male beagle dogs. The format is in vivo. How it is done:
Oral administration group: Weigh an appropriate amount of the test compound (calculated in free form), dissolve it in a 0.5% MC aqueous solution, vortex and sonicate for 10 min until the compound was milky white and uniformly suspended, and prepare a 1.0 mg/mL uniform suspension solution for use. Male beagle dogs weighing about 11 kg were selected and orally administered with the test compound. Sample collection time was: 0.083, 0.25, 0.5, 1, 2, 4, 6, 8, and 24 hours.
1 mL of whole blood was collected from the forelimb vein to prepare plasma for concentration determination by high performance liquid chromatography - tandem mass spectrometry (LC-MS/MS). The non-compartmental model of WinNonlin 8.2.0 (Pharsight, Mountain View, CA), pharmacokinetic software, was used to process plasma concentrations, and the linear logarithmic trapezoidal method was used to calculate pharmacokinetic parameters. Pharmacokinetic study results of crystalline form A, crystalline form B and crystalline form C

Series [2] can be described thus: Hygroscopicity study by Dynamic Vapor Sorption (DVS). The conditions noted are these: for Hygroscopicity classification: 25°C and 80% RH; for ΔW: weight gain at 25°C, humidity 80 % RH. The format is physicochemical. The protocol: • Instrument model: SMS DVS Intrinsic Dynamic Vapor Sorption Instrument • Test conditions: Take a sample (10 ~ 30 mg) and place it in the DVS sample pan for testing.
Hygroscopicity classification
10-30 mg of the crystalline form A of the compound of formula (I) was placed in a DVS sample tray for testing.
10-30 mg of the crystalline form B of the compound of formula (II) was placed in a DVS sample tray for testing.
10-30 mg of the crystalline form C of the compound of formula (III) was placed in a DVS sample tray for testing.

A short description of series [3]: Crystalline form screening: suspension crystallization. The format is physicochemical. The conditions noted are these: for Result (crystal form): 50 °C, suspension. The text has this: The operation process of suspension crystallization was to weigh a certain amount of the crystalline form A of the compound of formula (I), add a certain amount of solvent, maintain the system in a state of suspension and stir at a certain temperature, and filter out the solid for analysis after a period of time. Table 6. Suspension crystallization

The nature of series [4]: Solid stability test at high temperature and high humidity (XRPD). The format is physicochemical. How it is done:
According to the "Guidelines for Stability Testing of APIs and Preparations" (Chinese Pharmacopoeia 2020 Edition, Part IV, General Rules 9001), the stabiilty of the crystalline form A of compound of formula (I) and the crystalline form B of compound of formula (II) was investigated at high temperature and high humidity (40°C/75%RH, open) (60°C/75%RH, open) conditions.
Weigh 10-30 mg of the crystalline form A of the formula (I) and the crystalline form B of the compound of formula (II), place them at the bottom of a glass sample bottle, and spread them into a thin layer. The samples were placed open to ensure that the samples were fully in contact with the ambient air. The samples placed under different conditions were sampled and tested (XRPD) on the 10th day, 30th day, and 60th day, and the test results were compared with the initial test results on day 0. Stability test results of the crystalline form of compound A of formula (I) and the crystalline form B of compound of formula (II)

Series [5] can be described thus: Crystalline form screening: cooling crystallization. The conditions noted are these: 50-25 °C. The format is physicochemical. The text has this:
The cooling crystallization operation process was to dissolve a certain amount of the crystalline form A of the compound of formula (I) in a certain amount of solvent at high temperature, stir at high temperature for a period of time, and then cool to a lower temperature at a certain cooling rate. If solid precipitates after cooling to a low temperature, filter it out for solid state analysis. Table 7. Cooling crystallization

Series [6] is described as follows: Crystalline form screening: anti-solvent crystallization. The format is physicochemical. The conditions noted are these: 25 - 5 °C. The text has this:
The operation process of anti-solvent crystallization was to dissolve a certain amount of the crystalline form A of the compound of formula (I) in a positive solvent to obtain a solution of the raw material drug, slowly add the raw material drug solution to the anti-solvent at a certain temperature, and filter out any solid precipitation for analysis. Table 8. Anti-solvent crystallization

Series [7] addresses T1, human PLK1 protein kinase (Homo sapiens, UniProt P53350).
T1 construct: purchased Reaction Biology Corp
Description: 33P isotope-labeled PLK1 kinase activity assay in vitro. The format is biochemical. The protocol: The IC50 value was determined using ^33P isotope-labeled kinase activity assay (Reaction Biology Corp) to evaluate the inhibitory ability of the test compounds on human PLK1 protein kinase.
Buffer conditions: 20 mM HEPES (pH 7.5), 10 mM MgCl2, 1 mM EGTA, 0.01% Brij35, 0.02 mg/ml BSA, 0.1 mM Na3VO4, 2 mM DTT, 1% DMSO
Test steps: Dissolve the test compound in DMSO at room temperature to prepare a 10 mM solution for use. Dissolve the substrate Casein in a freshly prepared buffer (final concentration 20 µM), add the tested PLK1 kinase (final concentration 12 nM) and mix well. Add the DMSO-dissolved test compound stock solution to the above mixed reaction solution using the acoustic pipetting system Echo 550 according to the set final concentration gradient (highest final concentration was 1 µM, 3-fold dilution, 10 gradients). After incubation at room temperature for 20 minutes, add ^33 P-ATP (final concentration 0.01 µCi/µL), incubate at room temperature for 120 minutes, and then spot the reaction solution on P81 ion exchange filter paper (Whatman # 3698-915). After repeatedly washing the filter paper with 0.75% phosphoric acid solution, the level of residual radioactive phosphorylated substrate on the filter paper was determined. % kinase activity = kinase activity test compound/ kinase activity blank group (DMSO) × 100%. […]

The mark [8] stands for this setting: dog, 5 mg/kg, PO, 5.0 mpk (calculated in free state), 0.5% MC aqueous suspension, plasma.
[9] abbreviates: listed as crystalline form C of the compound of formula (III).
[10] abbreviates: dog, plasma, po, 5 mg/kg, 5.0 mpk (calculated in free state), 0.5% MC aqueous suspension.

The term AUC(0-t) denotes the area under the concentration-time curve up to a stated or last time point. What is called Cmax is the highest concentration seen after dosing. The Tmax is the time at which the peak concentration occurs. As usually defined, the half-life is the time needed for the level to fall by half in the phase considered. By IC50 is commonly meant the concentration that gives 50% inhibition.

T1 sequence (P53350 whole entry): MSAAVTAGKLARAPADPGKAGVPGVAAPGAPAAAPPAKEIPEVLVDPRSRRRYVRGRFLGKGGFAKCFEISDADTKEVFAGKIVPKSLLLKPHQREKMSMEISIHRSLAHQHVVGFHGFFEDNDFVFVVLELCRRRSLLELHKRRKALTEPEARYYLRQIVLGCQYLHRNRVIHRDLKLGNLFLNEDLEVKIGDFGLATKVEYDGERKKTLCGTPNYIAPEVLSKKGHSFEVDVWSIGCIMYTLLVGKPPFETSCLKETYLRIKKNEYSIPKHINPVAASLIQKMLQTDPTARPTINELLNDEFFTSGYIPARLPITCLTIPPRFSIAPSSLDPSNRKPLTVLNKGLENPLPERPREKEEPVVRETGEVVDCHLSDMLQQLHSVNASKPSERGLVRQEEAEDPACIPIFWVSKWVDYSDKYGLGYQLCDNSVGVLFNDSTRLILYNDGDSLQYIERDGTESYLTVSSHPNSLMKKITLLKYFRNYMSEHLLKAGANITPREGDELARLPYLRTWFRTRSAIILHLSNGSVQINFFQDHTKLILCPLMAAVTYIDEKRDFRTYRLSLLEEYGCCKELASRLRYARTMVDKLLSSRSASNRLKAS

`CSc1sc(C(N)=O)c2c1-c1nc(Nc3cc(N4CCN(C)CC4)ccc3OC(F)(F)F)ncc1CC2` [listing 1 of 3 here]: in series [1] (setting [8]), the AUC(0-t) at 24 h is 1.59 µM·h, the Cmax is 132 nM, the time to peak (Tmax) is 6 h and the half-life was 4 h. In addition, in series [2] (setting [9]), the Hygroscopicity classification result is on record as “hygroscopic” and the ΔW was determined as 2.919%.
With `CSc1sc(C(N)=O)c2c1-c1nc(Nc3cc(N4CCN(C)CC4)ccc3OC(F)(F)F)ncc1CC2` [listing 2 of 3 here], the “Result (crystal form)” value in series [3] (Condition 1: Acetonitrile 2.0 mL), in series [3] (Condition 2: Ethyl acetate 2.0 mL), in series [3] (Condition 3: Toluene 2.0 mL), in series [3] (Condition 4: Butanone 1.0 mL), in series [5] (Condition 1: Tetrahydrofuran 1.0 mL) and in series [5] (Condition 2: 2- methyl - tetrahydrofuran 5.0 mL) was “crystal form A” each time. Also, the “Result (crystal form)” value is listed as “crystal form A” in series [6] (Condition 1: solvent THF, antisolvent H2O, 2.0+4.0 mL); “crystal form A” in series [6] (Condition 2: solvent THF, antisolvent IPA, 2.0+6 0. mL); “crystal form A” in series [6] (Condition 3: solvent THF, antisolvent Tol, 2.0+4.0 mL); “crystal form A” in series [6] (Condition 4: solvent DCM, antisolvent ACN, 4.0 mL); “crystal form A” in series [6] (Condition 5: solvent DCM, antisolvent MTBE, 4.0 mL); “crystal form A” in series [6] (Condition 6: solvent DMSO, antisolvent EtOAc, 0.6+8.0 mL). Further, in series [3] (conclusion over suspension, cooling and anti-solvent crystallization), the “stability in different solvents and at different temperatures” value was “good stability”. Moreover, the Crystal form entry in series [4] (40 °C /75%RH, open, 10 days) is recorded as “crystal form A”; in series [4] (40 °C /75%RH, open, 30 days), “crystal form A”; in series [4] (40 °C /75%RH, open, 60 days), “crystal form A”; in series [4] (60 °C /75%RH, open, 10 days) it was “crystal form A”; in series [4] (60 °C /75%RH, open, 30 days), “crystal form A”; in series [4] (60 °C /75%RH, open, 60 days) it was “crystal form A”. Besides, the Crystal form entry in series [4] (Initial sample, Day 0) was “crystal form A”. Besides, the “stability under high temperature and high humidity conditions” value in series [4] (conclusion) is “good stability”. Also, the “absorption after oral administration” value in series [1] (conclusion) is listed as “well absorbed”. Further, in series [1] (setting [8]), the AUC(0-t) is 0.907 µM·h. The Cmax in series [1] (setting [8]) was 106 nM. The Tmax in series [1] (setting [8]) was 3 h. Further, the half-life in series [1] (setting [8]) was 4.6 h. Also, the “inhibitory activity against PLK1” value in series [7] (conclusion) is reported as “good inhibitory activity”. In addition, 2.48 nM corresponded to half-maximal inhibition in series [7] (substrate Casein 20 µM, PLK1 12 nM, 33P-ATP, 120 minutes at room temperature) (IC50). For the same molecule, the Hygroscopicity classification result in series [2] is on record as “not hygroscopic”. In addition, the ΔW in series [2] is given as 0.1671%.
Consider `CSc1sc(C(N)=O)c2c1-c1nc(Nc3cc(N4CCN(C)CC4)ccc3OC(F)(F)F)ncc1CC2` [listing 3 of 3 here], for which the Crystal form result in series [4] (40 °C /75%RH, open, 10 days, listed as Crystalline Form B of Compound of Formula (II)) is on record as “crystal form B”. In addition, the Crystal form entry in series [4] (60 °C /75%RH, open, 10 days, listed as Crystalline Form B of Compound of Formula (II)) was “crystal form B”. Further, the Crystal form entry in series [4] (Initial sample, Day 0, listed as Crystalline Form B of Compound of Formula (II)) was “crystal form B”. Moreover, in series [1] (setting [10]), the area under the curve AUC(0-t) at 24 h is 1.11 µM·h, the Cmax was 123 nM, the Tmax was 4 h and the half-life was 5 h. In addition, the Hygroscopicity classification entry in series [2] (listed as crystalline form B of the compound of formula (II)) was “hygroscopic”. This molecule also displayed a ΔW in series [2] (listed as crystalline form B of compound (II)) of 2.078%.
